# Experiments:
# [1] = test system: Poly-L-Lysine Hydrobromide (PLL); experiment: Lysine depletion protocol (in chemico reactivity towards lysine); conditions: 20 mM molecule incubated 1 h with DNFB 5 mM; FIG. 1B
# Protocol: In an embodiment, a Lysine depletion Protocol—“in house development protocol” was applied, comprising: Dissolve 0.01 g of Poly-L-Lysine Hydrobromide (PLL) (Sigma, P1399) in 100 mL of purified water (use within 2 months). Filter the solution with a syringe filter to remove aggregates and store ate 4° C. for further use. For plate coating add 50 μL of PLL to each well of the 96 black bottom glass microplate (Corning ref 45806) and incubate for 2 hours at 37° C. or 24 h at room temperature.
# In an embodiment, after the coating procedure, the contents of the plate were discarded into a sink and the plate is washed 3 times with 200 μL of PBS per well. Blot any residual PBS by firmly tapping the plate upside-down on absorbent paper. 20 mM of each potential ACD inhibitory molecule/mixture is added and incubated with 70 μl of the strong skin sensitizer 1-fluoro-2,4-dinitrobenzene (DNFB) (5 mM in DMSO) for 1h; the mixture was transferred to the plate and incubated for 24 h at 37° C. The contents of the plate were discarded and the wells were washed 3 times with PBS as previously reported. 70 μL of 10 μM Fluorescein-5-Ex-Succinimidyl Ester (FSE) were added and incubated for 1 h in the dark at 37° C. The contents of the plate were discarded; the wells were washed 3 times with PBS as previously stated. The fluorescence was read in a microplate reader (Exc 485±20 nm and Em 530±30 nm). Synergy™ HT plate reader (BioTek Instruments, Inc., Winooski, VT, USA): Bottom read with a sensibility of 50. […]
# In an embodiment, Reference control A is made with the solvent DMSO, with incubation with FSE and is used to calculate the maximum fluorescence or absorbance in the presence of LYS. […]
# In an embodiment, Test chemicals were pre-weighted into 1.5 mL test tubes and dissolved in 1 mL of DMSO to prepare a 100 mM solution immediately before use. The weight of the test chemical to be added to the vial was determined based on the molecular weight and purity. […]
# In an embodiment, for the data Analysis the percentage of peptide depletion is determined by using the following formula: […]
# [2] = test system: NRF2 dependent genes in HaCaT; experiment: Expression of NRF2 dependent genes in keratinocytes (real time PCR); format: cell-based, human; conditions: 6 h
# Protocol: HaCaT is cultured with Dulbecco's Modified Eagle's Medium (DMEM) (Sigma-Aldrich, St. Louis, MO, USA), supplemented with 10% (v/v) heat-inactivated fetal bovine serum (FBS), 1% (v/v) antibiotic solution (100 U/mL penicillin, 100 μg/mL streptomycin) (Gibco, Carlsbad, CA, USA), 3.7 g/L sodium bicarbonate and 1 mM sodium pyruvate (Sigma-Aldrich, St. Louis, MO, USA).
# In an embodiment, HaCaT cells are seeded in 6-well plates at a density of 6×10^5 cells/well and allowed to adhere for 24 h. After that, cells are incubated for 24 h with exposure medium (control) or treated with 10 mM of NAC, 10 mM of LYS, 8 μM of DNFB, 100 μM of MI, or 10 mM+DNFB, 10 mM LYS+DNFB and 10 mM+MI, 10 mM LYS+MI for 6 h or 24 h.
# In an embodiment, total RNA (ribonucleic acid) is extracted from HaCaT treated cells, as previously described by our group [37], with NZYol reagent, according to the manufacturer's instructions and its concentration is determined by OD260 measurement using a NanoDrop spectrophotometer (Thermo Scientific, Wilmington, DE, USA). Samples are stored in RNA Storage Solution at −80° C. until use. Total RNA (1 g) is reverse-transcribed using the iScript Select cDNA Synthesis Kit, and real-time reverse transcriptase-polymerase chain reaction (RT-PCR) reactions are performed, in duplicate for each sample, on a Bio-Rad MyCycler iQ5 (Hercules, CA, USA), as previously described by our group [38].
# In an embodiment, after amplification, a threshold is set for each gene and Ct values are calculated for all samples. Gene expression changes are analyzed using Bio-Rad CFX Maestro 1.1 system software (Hercules, CA, USA). The results are normalized using Hprt-1 as the reference gene. Primer sequences are designed using Beacon Designer software version 7.7 (Premier Biosoft International, Palo Alto, CA, USA) and thoroughly tested.
# [3] = In vitro permeation studies (IVPT), Franz cells; format: in vitro ADME, human; conditions: formulated in the hydrogel, single application, up to 24 h, non-occlusive
# Description: In an embodiment, the same vertical diffusional system of IVRT studies was used to evaluate the potential in vitro penetration of the active molecules. Human surgical skin pieces (person, type 3 skin, arm tissue) were surgically removed at Central Lisbon University Hospital Centre, after the approval of the Bioethics Committee, and processed as described in (Miranda et al., 2020). Written informed consent was obtained from the participant (Process number 447/2017). One day before the experiments, frozen epidermal specimens were left to thaw at room temperate. Afterwards, the skin sheets, with the stratum corneum side facing up, were gently placed on glass flasks filled with ultrapurified water and left to stabilize overnight, at 4° C. […] NAC and LYS were quantified by RP-HPLC, as described in the section above. […]
# In an embodiment, NAC and LYS were quantified by reversed-phase high-pressure liquid chromatography (RP-HPLC), using a Shimadzu LC-2010HT chromatographic system, equipped with an LC-20AD quaternary pump, a SIL-20AHT autosampler, a CTO-10AS over and an SPD-M2OA photodiode array detector. […] Using an injection volume of 50 μL, NAC and LYS were determined at 200 and 215 nm and eluted at 5.4 and 2.2 min, respectively.
# [4] = incubated before DNFB, vs DNFB alone
# [5] = incubated before MI, vs MI alone
Compound,reactivity of the strong allergen DNFB towards lysine (Lysine depletion) [1],"HMOX1 expression [2, 4]","HMOX1 expression [2, 5]","TRX1 expression [2, 5]",quantity of the active molecules in the receptor compartment (penetration of stratum corneum of human skin) [3],"NQO1 expression [2, 4]"
"CC(=O)N[C@@H](CS)C(=O)O [NAC, n-acetyl cysteine]",significantly inhibit,significantly decrease,significantly decrease,significantly decrease,below the limit of quantification,–
"NCCCC[C@H](N)C(=O)O [LYS, lysine]",significantly inhibit,significantly decrease,–,–,below the limit of quantification,significantly decrease

# Reference: US20260263401A1, “Topical composition and uses thereof” (UNIVERSIDADE DE COIMBRA, priority 2022, published 2026)
